ChEMBL document CHEMBL1132025, “Macrocyclic hexapeptide analogues of the thrombin receptor (PAR-1) activation motif SFLLRN” (Bioorg Med Chem Lett, 1999)
Numbered stars: 1 amine (or outer) side, 2 acyl side, 3 side chain; on linkers, the order of the positions; unused ones are H or OH. Bridge positions count the residues as written; N and C are the ends. Square brackets hold non-standard residues; d marks the D form. Peptide text beside a SMILES is read from it. Phe(3-F) = N[C@@H](Cc1cccc(F)c1)C(=O)O; Phe(4-F) = N[C@@H](Cc1ccc(F)cc1)C(=O)O; X1 = O=C(CCCN[*:2])[*:1]; GABA = NCCCC(=O)O; βAla = NCCC(=O)O

How the values were obtained:
[1] = molecular target: Proteinase-activated receptor 1 (Homo sapiens) (UniProt P25116); assay: In vitro antagonist activity to inhibit human platelet aggregation (gel-filtered platelets) induced by human thrombin at a concentration of 50 uM
[2] = organism: Homo sapiens; assay: (§1) Agonist activity to activate human platelet aggregation (gel-filtered platelets) at a concentration of 50 uM; format: functional, organism-based
[3] = organism: Homo sapiens; assay: Agonist activity to activate human platelet aggregation (gel-filtered platelets) at a concentration of 100 uM; Not active; format: functional
[4] = organism: Homo sapiens; assay: as §1; format: functional

SMILES	inhibition [1] [%]	EC50 [2] [µM]	EC50 [3]	Aggregation [4] [%]
CC(C)C[C@@H]1NC(=O)[C@@](C)(NC(=O)[C@@H](Cc2ccccc2)NC(=O)CN)CCCCNC(=O)CCCNC(=O)C[C@@H](C(N)=O)NC(=O)[C@H](CCCN=C(N)N)NC1=O	44	30	–	–
CC(C)C[C@@H]1NC(=O)[C@@H](NC(=O)[C@H](Cc2cccc(F)c2)NC(=O)CN)CCCCNC(=O)C[C@@H](C(N)=O)NC(=O)[C@H](CCCN=C(N)N)NC1=O (H-G[Phe(3-F)]KLRD-NH2; lactam 3-6)	10	–	–	6
CC(C)C[C@@H]1NC(=O)[C@@H](NC(=O)[C@H](Cc2ccc(F)cc2)NC(=O)CN)CCCCNC(=O)C[C@@H](C(N)=O)NC(=O)[C@H](CCCN=C(N)N)NC1=O (H-G[Phe(4-F)]KLRD-NH2; lactam 3-6)	14	60	–	–
CC(C)C[C@@H]1NC(=O)[C@@H](NC(=O)[C@H](Cc2cccc(F)c2)NC(=O)CCCN)CCCCNC(=O)C[C@@H](C(N)=O)NC(=O)[C@H](CCCN=C(N)N)NC1=O (H-[GABA][Phe(3-F)]KLRD-NH2; lactam 3-6)	2	–	–	6
CC(C)C[C@@H]1NC(=O)[C@@H](NC(=O)[C@H](Cc2ccccc2)NC(=O)CCCN)CCCCNC(=O)C[C@@H](C(N)=O)NC(=O)[C@H](CCCN=C(N)N)NC1=O (H-[GABA]FKLRD-NH2; lactam 3-6)	6	–	–	6
CC(C)C[C@H](NC(=O)[C@H](CC(C)C)NC(=O)[C@H](Cc1ccccc1)NC(=O)[C@@H](N)CO)C(=O)N[C@@H](CCCN=C(N)N)C(=O)N[C@@H](CC(N)=O)C(N)=O	–	0.8	–	–
CC(C)C[C@@H]1NC(=O)[C@H](CC(C)C)NC(=O)[C@H](Cc2ccccc2)NC(=O)[C@@H](N)CCCCNC(=O)CCCNC(=O)C[C@@H](C(N)=O)NC(=O)[C@H](CCCN=C(N)N)NC1=O (H-KFLLRD-NH2; linker 1-6 via X1)	52	–	–	5
CC(C)C[C@@H]1NC(=O)[C@@H](NC(=O)[C@H](Cc2ccccc2)NC(=O)[C@@H](N)CO)CCCCNC(=O)C[C@@H](C(N)=O)NC(=O)[C@H](CCCN=C(N)N)NC1=O (H-SFKLRD-NH2; lactam 3-6)	13	–	–	16
CC(C)C[C@@H]1NC(=O)[C@H](CC(C)C)NC(=O)[C@H](Cc2ccccc2)NC(=O)[C@@H](N)CCCCNC(=O)C[C@@H](C(N)=O)NC(=O)[C@H](CCCN=C(N)N)NC1=O (H-KFLLRD-NH2; lactam 1-6)	3	–	–	6
CC(C)C[C@@H]1NC(=O)[C@@H](NC(=O)[C@H](Cc2cccc(F)c2)NC(=O)[C@@H](N)CO)CCCCNC(=O)C[C@@H](C(N)=O)NC(=O)[C@H](CCCN=C(N)N)NC1=O (H-S[Phe(3-F)]KLRD-NH2; lactam 3-6)	5	–	–	12
CC(C)C[C@@H]1NC(=O)[C@@H](NC(=O)[C@@H](CCc2ccccc2)NC(=O)[C@@H](N)CO)CCCCNC(=O)C[C@@H](C(N)=O)NC(=O)[C@H](CCCN=C(N)N)NC1=O	5	–	–	16
CC(C)C[C@@H]1NC(=O)[C@@H](NC(=O)[C@H](Cc2ccccc2)NC(=O)CCN)CCCCNC(=O)C[C@@H](C(N)=O)NC(=O)[C@H](CCCN=C(N)N)NC1=O (H-[βAla]FKLRD-NH2; lactam 3-6)	3	–	–	7
CC(C)C[C@@H]1NC(=O)[C@@H](NC(=O)[C@H](Cc2cccc(F)c2)NC(=O)CCN)CCCCNC(=O)C[C@@H](C(N)=O)NC(=O)[C@H](CCCN=C(N)N)NC1=O (H-[βAla][Phe(3-F)]KLRD-NH2; lactam 3-6)	3	–	–	7
CC(C)C[C@@H]1NC(=O)[C@@H](NC(=O)[C@H](Cc2ccccc2)NC(=O)CN)CCCCNC(=O)C[C@@H](C(N)=O)NC(=O)[C@H](CCCN=C(N)N)NC1=O (H-GFKLRD-NH2; lactam 3-6)	9	–	–	15
CC(C)C[C@@H]1NC(=O)[C@@H](NC(=O)[C@H](Cc2ccccc2)NC(=O)[C@H](C)N)CCCCNC(=O)C[C@@H](C(N)=O)NC(=O)[C@H](CCCN=C(N)N)NC1=O (H-AFKLRD-NH2; lactam 3-6)	2	66	–	–

Further lines, with some results ahead:

inhibition [1] [%]	EC50 [2] [µM]	EC50 [3]	SMILES	Aggregation [4] [%]
2	–	Not Active	CC(C)C[C@@H]1NC(=O)[C@@H](NC(=O)[C@@H](CCc2ccccc2)NC(=O)[C@@H](N)CO)CCCCNC(=O)C[C@@H](C(N)=O)NC(=O)[C@H](Cc2ccccc2)NC1=O	–
11	–	Not Active	CC(C)C[C@@H]1NC(=O)[C@@H](NC(=O)[C@@H](Cc2ccccc2)NC(=O)CCN)CCCCNC(=O)C[C@@H](C(N)=O)NC(=O)[C@H](Cc2ccccc2)NC1=O	–
16	43	–	CC(C)C[C@@H]1NC(=O)[C@@H](NC(=O)[C@@H](CCc2ccccc2)NC(=O)CCN)CCCCNC(=O)C[C@@H](C(N)=O)NC(=O)[C@H](Cc2ccccc2)NC1=O	–
24	–	Not Active	CC(C)C[C@@H]1NC(=O)[C@@H](NC(=O)[C@H](Cc2cccc(F)c2)NC(=O)CCN)CCCCNC(=O)C[C@@H](C(N)=O)NC(=O)[C@H](Cc2ccccc2)NC1=O (H-[βAla][Phe(3-F)]KLFD-NH2; lactam 3-6)	–
14	–	Not Active	CC(C)C[C@@H]1NC(=O)[C@@H](NC(=O)[C@H](Cc2ccccc2)NC(=O)CCCN)CCCCNC(=O)C[C@@H](C(N)=O)NC(=O)[C@H](Cc2ccccc2)NC1=O (H-[GABA]FKLFD-NH2; lactam 3-6)	–
11	63	–	CC(C)C[C@@H]1NC(=O)[C@@H](NC(=O)[C@H](Cc2cccc(F)c2)NC(=O)CN)CCCCNC(=O)C[C@@H](C(N)=O)NC(=O)[C@H](Cc2ccccc2)NC1=O (H-G[Phe(3-F)]KLFD-NH2; lactam 3-6)	–
23	–	Not Active	CC(C)C[C@@H]1NC(=O)[C@@H](NC(=O)[C@H](Cc2cccc(F)c2)NC(=O)[C@@H](N)CO)CCCCNC(=O)C[C@@H](C(N)=O)NC(=O)[C@H](Cc2ccccc2)NC1=O (H-S[Phe(3-F)]KLFD-NH2; lactam 3-6)	–
1	–	–	CC(C)C[C@@H]1NC(=O)[C@@H](NC(=O)[C@@H](CCc2ccccc2)NC(=O)CCN)CCCCNC(=O)C[C@@H](C(N)=O)NC(=O)[C@H](CCCN=C(N)N)NC1=O	7
2	–	–	CC(C)C[C@@H]1NC(=O)[C@@H](NC(=O)[C@@H](CCc2ccccc2)NC(=O)CCCN)CCCCNC(=O)C[C@@H](C(N)=O)NC(=O)[C@H](CCCN=C(N)N)NC1=O	8
1	–	Not Active	CC(C)C[C@@H]1NC(=O)[C@@H](NC(=O)[C@@H](CCc2ccccc2)NC(=O)CN)CCCCNC(=O)C[C@@H](C(N)=O)NC(=O)[C@H](Cc2ccccc2)NC1=O	–
12	–	Not Active	CC(C)C[C@@H]1NC(=O)[C@@H](NC(=O)[C@H](Cc2ccccc2)NC(=O)[C@@H](N)CO)CCCCNC(=O)C[C@@H](C(N)=O)NC(=O)[C@H](Cc2ccccc2)NC1=O (H-SFKLFD-NH2; lactam 3-6)	–
23	24	–	CC(C)C[C@@H]1NC(=O)[C@@H](NC(=O)[C@H](Cc2ccccc2)NC(=O)CN)CCCCNC(=O)C[C@@H](C(N)=O)NC(=O)[C@H](Cc2ccccc2)NC1=O (H-GFKLFD-NH2; lactam 3-6)	–
2	–	–	CC(C)C[C@@H]1NC(=O)[C@@H](NC(=O)[C@@H](CCc2ccccc2)NC(=O)CN)CCCCNC(=O)C[C@@H](C(N)=O)NC(=O)[C@H](CCCN=C(N)N)NC1=O	5
15	37	–	CC(C)C[C@@H]1NC(=O)[C@@H](NC(=O)[C@@H](CCc2ccccc2)NC(=O)CCCN)CCCCNC(=O)C[C@@H](C(N)=O)NC(=O)[C@H](Cc2ccccc2)NC1=O	–
27	–	Not Active	CC(C)C[C@@H]1NC(=O)[C@@H](NC(=O)[C@H](Cc2cccc(F)c2)NC(=O)CCCN)CCCCNC(=O)C[C@@H](C(N)=O)NC(=O)[C@H](Cc2ccccc2)NC1=O (H-[GABA][Phe(3-F)]KLFD-NH2; lactam 3-6)	–
